Each structure is given as a SMILES string.

This experiment deals with Vaccinia virus. Nature of the experiment: Antiviral activity against Vaccinia virus infected in human skin fibroblasts assessed as inhibition of virus-induced cytopathogenicity. Format: functional, Orthopoxvirus vaccinia. In general terms: Damage to the host cells serves as the signal in cytopathic effect assays.
For the molecule `N#Cc1cn([C@@H]2O[C@H](CO)[C@@H](O)[C@H]2O)c(=O)[nH]c1=O`, the ID50 is listed as over 7 ×10⁻⁴ M. With `N#Cc1cn([C@H]2C[C@H](O)[C@@H](CO)O2)c(=O)[nH]c1=O` the figure was 2.7 ×10⁻⁵ M. With `O=c1[nH]c(=O)n([C@H]2C[C@H](O)[C@@H](CO)O2)cc1Br` [BROXURIDINE], the ID50 was 6.5 ×10⁻⁷ M. Then `O=c1[nH]c(=O)n([C@H]2C[C@H](O)[C@@H](CO)O2)cc1Cl` [CHLORODEOXYURIDINE], with 1.5 ×10⁻⁶ M; and `O=c1[nH]c(=O)n([C@H]2C[C@H](O)[C@@H](CO)O2)cc1F` [FLOXURIDINE], with 4 ×10⁻⁷ M. Then `O=c1[nH]c(=O)n([C@H]2C[C@H](O)[C@@H](CO)O2)cc1I` [IDOXURIDINE], with 1.1 ×10⁻⁶ M.

On to `O=c1[nH]c(=O)n([C@H]2C[C@H](O)[C@@H](CO)O2)cc1C(F)(F)F` [TRIFLURIDINE], for which the ID50 stood at 1.3 ×10⁻⁶ M.

As for `Nc1ncnc2c1ncn2[C@@H]1O[C@H](CO)[C@@H](O)[C@@H]1O` [VIDARABINE], the ID50 came to 2.6 ×10⁻⁵ M.

Values taken from ChEMBL document CHEMBL3244165, “Improved synthesis and in vitro antiviral activities of 5-cyanouridine and 5-cyano-2'-deoxyuridine” (J Med Chem, 1977).
